Results as given in patent US11369618B2, “Compounds, compositions and methods for prevention and/or treatment of cancer” (THE TRUSTEES OF THE UNIVERSITY OF PENNSYLVANIA, priority 2016, dated 2022).
“Also recorded” adds a separate entry of the source.

What was measured:
human melanocytes = experiment: pigment production and differentiation in human melanocytes treated with MSH or afamelanotide (FIG. 9); type: cell-based
Source text: FIG. 9 is a set of bar graphs illustrating the finding that MSH (the endogenous equivalent of afamelanotide) and afamelanotide (also known as […] or NDP-α-MSH) increase pigment production (top) and differentiation (bottom) in human melanocytes.

normal human melanocytes = experiment: differentiation of normal human melanocytes after continuous or transient hormone exposure (melanin, RNAseq, Western blot); type: cell-based; conditions: for melanocyte differentiation state (melanin pigment production) / melanin production after hormone withdrawal: normal human melanocytes; for melanocyte differentiation state (melanin pigment production): hormone or agonist exposure; for melanin production after hormone withdrawal: transient exposure then withdrawal
Procedure: (§1) FIG. 11A: Long-term melanin assay in which normal human melanocytes were transiently treated with progesterone (P4), or estrogen (E2). Subsets of these groups (Red) were treated with an additional transient pulse of P4 at Day 27. Error bars equal the standard deviation of the samples. FIG. 11B: Western blot of melanocyte differentiation markers after a transient, 4-day treatment with either vehicle or estrogen, followed by an 8 day withdraw period. FIG. 11C: Experimental timeline of estrogen or GPER agonist (G-1) pre-treatment of mouse and human melanoma cells, n=5 per group. FIG. 11D: Relative tumor weights of mouse and human melanomas pre-treated with estrogen, * denotes significance by the Mann-Whitney test. FIG. 11E: Relative tumor weights of mouse and human melanomas pre-treated with G-1, * denotes significance by the Mann-Whitney test.
Normal human melanocytes received a pulse-treatment of estrogen—this consisted of 4 days of estrogen treatment followed by an 8 day withdraw.
To test whether pregnancy-associated hormones induce long-lasting changes in melanocyte differentiation that may affect their future susceptibility to transformation, primary human melanocytes were transiently exposed to estrogen or progesterone (FIGS. 11A-11E).
A subset of cells differentiated by transient exposure to estrogen was subsequently treated with progesterone.

[1] = tested on: Mouse (B16) and human (WM46) melanoma cell lines; experiment: tumor formation in mice from melanoma cells pretreated in vitro; type: in vivo
Procedure: as §1
Mouse (B16) and human (WM46) cell lines were pretreated with estrogen, G-1, or vehicle in vitro for one week then injected in equal numbers in to the left (vehicle-treated) or right (E2-treated) flank of mice, inducing tumor formation (N=5 mice per group) (FIG. 5). 14-16 days later, mice were imaged and tumors were harvested and weighed.
To test whether transient GPER signaling induces a persistent differentiation state in melanoma cells that affects subsequent tumor growth in vivo, melanoma cells were treated with estrogen, G-1, or vehicle in vitro, and subsequently injected equal numbers of treated cells into host mice (FIG. 11C).

[2] = tested on: mouse and human melanoma cell lines (B16F10, WM46, WM51, WM3702); experiment: melanin assay (differentiation) of mouse and human melanoma cell lines in vitro; type: cell-based; conditions: estrogen 25 nM E2, G-1 100 nM, vs delivery vehicle
Source text: (§2) FIGS. 4A-4F illustrate the finding that GPER signaling slows proliferation and drives differentiation in mouse and human melanoma. FIG. 4A: 5 day proliferation assay of B16F10, WM46 (BRAF^V600E), WM51 (BRAF^V600E), and WM3702 (NRAS^Q61L) cells treated with estrogen (E2), * denotes significance by a two-tailed T-test, n=3 per group. FIG. 4B: 5 day melanin assay of B16F10, WM46 (BRAF^V600E), WM51 (BRAF^V600E), and WM3702 (NRAS^Q61L) cells treated with E2, * denotes significance by a two-tailed T-test, n=3 per group. FIG. 4C: 5 day proliferation assay of B16F10, WM46 (BRAF^V600E), WM51 (BRAF^V600E) and WM3702 (NRAS^Q61L) cells treated with GPER agonist (G-1), * denotes significance by a two-tailed T-test, n=3 per group. FIG. 4D: 5 day melanin assay of B16F10, WM46 (BRAF^V600E), WM51 (BRAF^V600E), and WM3702 (NRAS^Q61L) cells treated with G-1, * denotes significance by a two-tailed T-test, n=3 per group. FIG. 4E: 3 day proliferation assay of B16F10 cells treated with a dose response of G-1, * denotes significance One-way ANOVA with Tukey's multiple comparison test, n=5 per group. FIG. 4F: Western blot of B16F10 cells treated for 16 hours with a saturating dose response of G-1. […]
(§3) Tumor cell proliferation slowed in both mouse and human melanoma cells following treatment with estrogen or G-1, a specific GPER agonist. […] Cell proliferation and differentiation (melanin production) were measured.

[3] = tested on: histone posttranslational modifications; experiment: mass spectrometry of histone posttranslational modifications in estrogen-treated melanocytes; type: cell-based, human
Source text: FIG. 16B: Western blot of p-RB, c-Myc, and H3K56ac in melanoma cells after treatment with G-1, HDACi, or in combination. FIG. 16C: Proliferation assay of B16F10 melanoma cells after treatment with G-1, HDACi, or in combination.
To begin to identify the epigenetic changes likely underlying stable melanocyte differentiation after GPER activation, mass spectrometry was used to obtain a global analysis of histone posttranslational modifications in estrogen-treated MC.

[4] = tested on: mouse and human melanoma cell lines (B16F10, WM46, WM51, WM3702); experiment: proliferation assay of mouse and human melanoma cell lines in vitro; type: cell-based; conditions: estrogen 25 nM E2, G-1 100 nM, vs delivery vehicle
Source text: as §2, §3

Compound | differentiation (human melanocytes) | pigment production (human melanocytes) | melanocyte differentiation state (melanin pigment production) (normal human melanocytes) | melanin production after hormone withdrawal (normal human melanocytes) | inhibition of tumor growth in vivo ([1]; cells pretreated in vitro for one week, injected into flank of mice, tumors weighed 14-16 days later) | tumor growth / tumor size from pretreated cells ([1]; melanoma cells pretreated in vitro, equal numbers injected into mice) | differentiation (melanin production) [2] | H3K9ac mark [3] | histone acetylation marks regulated by CBP/P300, including H3K122, H3K23, and H3K18 ([3]; 3 independent biologic replicates) | melanoma cell proliferation [4] | expression of aggressive melanoma markers such as premelanosome protein (PMEL) (normal human melanocytes; 4 days of treatment followed by an 8 day withdraw, RNAseq) | expression of melanocyte differentiation markers (TYR, TRP1, MC1R, MLANA, DCT) (normal human melanocytes; 4 days of treatment followed by an 8 day withdraw, RNAseq, Western blot) | melanocyte differentiation state (melanin pigment production) (normal human melanocytes; listed as Estrogen)
MSH: the endogenous equivalent of afamelanotide (Ac-SYSMEHFRWGKPV-NH2; ends and bridges not checked; UniProt P01189 138-150, looked up) | increase | increase |  |  |  |  |  |  |  |  |  |  | 
CC(=O)[C@H]1CC[C@H]2[C@@H]3CCC4=CC(=O)CC[C@]4(C)[C@H]3CC[C@]12C [progesterone] |  |  | had opposite effects | quickly returned to their baseline level of melanin production |  |  |  |  |  |  |  |  | 
C[C@]12CC[C@@H]3c4ccc(O)cc4CC[C@H]3[C@@H]1CC[C@@H]2O [estrogen, estradiol] |  |  | increases melanocyte differentiation state; also recorded: increase the differentiation state of human melanocytes | stably produced more melanin | approximately 3 fold | formed significantly smaller tumors; also recorded: markedly reduced subsequent tumor size; also recorded: inhibits melanoma cell line growth in vivo | drove differentiation | decreased | significant increases | slowed melanoma cell proliferation | decreased expression | maintained upregulated expression of all the major melanocyte differentiation markers; also recorded: stable increases in classic melanocyte differentiation antigens | make more pigment; also recorded: increased melanin production
